Here are results for two substances from patent US20230321189A1, “THERAPEUTIC AGENTS, PHARMACEUTICAL COMPOSITIONS, AND ASSOCIATED BIOMARKERS BASED ON TRK-B” (INSTITUTO DE MEDICINA MOLECULAR JOÃO LOBO ANTUNES, priority 2020, published 2023).

The test system of data set [1] is hippocampal synaptosomes. The data set can be described thus: [3H]glutamate release from hippocampal synaptosomes. Format: cell-based, rat. The note with it: BDNF 30 ng/ml. The protocol: Isolation of Synaptosomes. The synaptosomal fraction from rat hippocampi was prepared as routinely in the lab^3. Hippocampal slices (male Wistar rats, 7-10 weeks old) were prepared and treated with vehicle or Aβ1-42, as described above. Then, slices were added to 5 ml of ice-cold isosmotic sucrose solution (0.32 M, containing 1 mM EDTA, 1 mg/ml BSA, 10 mM HEPES, pH 7.4), and homogenized in a Potter-Elvehjem homogenizer with a Teflon piston (four up-and-down strokes) and the volume completed to 10 ml with the sucrose solution. After a first centrifugation at 3,000 g for 10 min (Heraeus sepatech—Biofuge 28RS centrifuge with 3746 rotor), the supernatant was collected and centrifuged at 14,000 g for 12 min. The whole procedure was conducted at 4° C. The pellet was resuspended in 1 ml 45% Percoll in KHR solution consisting of (in mM) NaCl 140, EDTA 1, HEPES 10, KCl 5, and glucose 5, and centrifuged at 16,000 g for 2 min. The synaptosomal fraction corresponds to the top buoyant layer and was collected from the tube. Percoll was removed by two washes with 1 ml KHR solution centrifuged at 16,000 g for 2 min each; synaptosomes were then kept on ice and used within 3 hours. The synaptosomal protein concentration was assayed using the Bio-Rad DC™ protein assay and BSA as standard.
[^3H]Glutamate Release from Hippocampal Synaptosomes. [3H]Glutamate release from hippocampal synaptosomes was performed as routinely in the lab^39. […]
Calculation of drug effects on glutamate release. At the end of each experiment, aliquots (500 μl) of each sample as well as the filters from each superfusion chamber were analyzed by liquid scintillation counting. The fractional release was expressed as the percentage of total radioactivity present in the synaptosomes at each time point. The amount of radioactivity released by each pulse of K^+ (S1 and S2) was calculated by integration of the area of the peak upon subtraction of the estimated basal tritium release. […]

The test system of data set [2] is hippocampal slices. The experiment in a line: θ-burst Long-Term Potentiation (LTP) in acute hippocampal slices. It is filed as cell-based, rat. An excerpt: Young adult (7-10 weeks old) male Wistar rats were sacrificed by decapitation under deep isoflurane anaesthesia. The brain was quickly removed, hemisected and both hippocampi were dissected free within ice-cold artificial cerebrospinal fluid (aCSF) (mM: NaCl 124; KCl 3; NaH2PO4 1.25; NaHCO326; MgSO4 1; CaCl2 2; and glucose 10), previously gassed with 95% O2 and 5% CO2, pH 7.4.
Slices (400 μm-thick) were cut perpendicularly to the long axis of the hippocampus with a McIlwain tissue chopper and allowed to recover for at least 60 min in a resting chamber, filled with the gassed aCSF, at room temperature (RT) (22-24° C.).
Hippocampal slices were incubated with vehicle or Aβ1-42 (200 nM) species (monomers, oligomers or fibrils) for 3 h at RT in gassed aCSF. We chose to perform slice incubation at RT, to avoid neuronal damage by hypoxic injury^27.
Slices were transferred to a submerging chamber (1 ml) and continuously superfused at a3 ml/min rate with gassed aCSF at 32° C. Perfusion tubes were coated with 0.1 mg/ml BSA prior to experiments to avoid adsorption of BDNF to the tubes^35. Evoked field excitatory postsynaptic potentials (fEPSP) were recorded extracellularly through a microelectrode filled with 4 M NaCl (2-8 MΩ resistance) placed in the stratum radiatum of the CA1 area, as previously described^34,35. One pathway of the Schaffer collateral/commissural fibers was stimulated (rectangular pulses of 0.1 ms duration) at every 15 s (for V/O curves, basal synaptic transmission and Paired-Pulse Facilitation (PPF) recordings) or every 20 s (for LTP recordings), by a bipolar concentric wire electrode placed on the Schaffer fibers in the stratum radiatum, in the CA1 area. The initial intensity of the stimulus was adjusted to obtain a submaximal fEPSP slope with a minimum population spike contamination, near one-fifth of the fEPSP slope obtained with supramaximal stimulation. The averages of eight consecutive fEPSPs were obtained and the slope of the initial phase of the potential was quantified. Recordings were obtained with an Axoclamp 2B amplifier (Axon Instruments, Foster City, CA), digitized and continuously stored on a personal computer with the LTP program 3. All the protocols detailed below were started only after a stable baseline of at least 20 minutes.
Long-Term Potentiation induction and saturation. A weak LTP-inducing θ-burst protocol consisting of four trains of 100 Hz, four stimuli, separated by 200 ms was used (4×4)^34,37. The intensity of the stimulus was never changed. LTP magnitude was quantified as the normalized change in the average slope of the fEPSP taken from 50 to 60 min after LTP induction in relation to the average slope of the fEPSP measured during the 10 min that preceded the induction of LTP.
For the experiments in FIG. 2, Brain-Derived Neurotrophic Factor (BDNF, 30 ng/ml) was added to the superfusing solution 20 min before the induction of LTP. Controls for these experiments were performed in different slices, without BDNF superfusion, on the same day. Generally, when testing BDNF effect on synaptic plasticity, two independent pathways of the same hippocampal slice are used, one serving as test and the other as internal control^35,38. However, because in the present experimental design slices were previously exposed to vehicle/Aβ for 3 h, we chose to test BDNF effect in different slices from the same rats. […]

Take “BDNF: Brain-derived Neurotrophic Factor, supplied by Regeneron Pharmaceuticals”: the “BDNF effect on glutamate release after Aβ1-42 monomeric or fibrillar species” value in data set [1] (Aβ 200 nM monomers or fibrils, P<0.05) is “preserved”. In addition, in data set [1] (Aβ 200 nM oligomers, P>0.05), the “BDNF effect on glutamate release after Aβ1-42 oligomeric species” value is “impaired”. The “glutamate release, control conditions” value in data set [1] (P<0.01) is on record as “boosted”. Also, the “LTP magnitude, control conditions” value in data set [2] (BDNF 30 ng/ml) is reported as “boosted”. In data set [2] (BDNF 30 ng/ml, Aβ 200 nM monomers or fibrils, P<0.05), the “BDNF effect on LTP after Aβ1-42 monomeric or fibrillar species” value was “preserved”. In addition, the “BDNF effect on LTP after Aβ1-42 oligomeric species” value in data set [2] (BDNF 30 ng/ml, Aβ 200 nM oligomers, P>0.05) is given as “impaired”. In addition, in data set [2] (BDNF 30 ng/ml, TAT-TrkB 20 μM, Aβ 200 nM, P>0.05), the “effect of exogenous BDNF on LTP in slices exposed to TAT-TrkB and Aβ oligomers” value is “did not boost LTP further”.

As to “TrkB-Fc: recombinant human TrkB/Fc chimera, BDNF's scavenger [reference compound]”, the “effect on LTP in slices exposed to Aβ oligomers and TAT-TrkB” value in data set [2] (TrkB-Fc 2 μg/ml superfused from 30 min before LTP induction, TAT-TrkB 20 μM, P<0.05) is listed as “counteracts the effect of TAT-TrkB on LTP reestablishment”.
